Each structure is given as a SMILES string. Where “and” joins values, the source holds several entries; their conditions need not be identical. Equal values may be shown once. Where a name gives a salt, the structure may show the parent alone.

Common to all, as to assay type: in vivo
One series deals with β-endorphin. Briefly: Plasma β-endorphin radioimmunoassay in UV/mock irradiated mice. Particulars: mice treated twice a week with Naloxone or Saline; daily UV or Mock irradiation. The text has this:
Mice were dorsally shaved two days prior to the start of radiation exposure, then exposed to 50 mJ/cm^2/day of UVB, an empirically determined sub-erythematic dose, 5 days per week (Monday-Friday) for 6 weeks. If there were patches of fur re-growth, mice were re-shaved once every two weeks.
For blood draws, mice were placed in a standard restrainer and tail vein blood was collected in EDTA microvette tubes containing 0.6TIU aprotinin. Mice underwent blood draws prior to the start of radiation exposure, once per week during the radiation exposure regimen, and once per week for two weeks following cessation of the UV regimen. Blood was drawn in the mornings prior to radiation exposure on Fridays.
Tubes of collected blood were maintained on ice until centrifugation at 3500 RPM for 20 minutes at 4° C. Plasma was isolated and samples were stored at −80° C. until β-endorphin measurement. β-endorphin was quantified by radioimmunoassay (Phoenix Pharmaceuticals, Burlingame, Calif.).

For a further series, the system named is C57Bl/6 mice. Description: Somatic symptoms of opiate withdrawal after chronic UV exposure. Particulars: 2 mg/kg ip after 6 weeks of daily UV exposure; observed 25 minutes. The method, then:
Mice that had undergone 6 weeks of daily UV exposure or mock exposure were injected (ip) with either 2 mg/kg naloxone or saline, and signs of opioid withdrawal were tabulated as described (Olson et al., 2006). […] Wet dog shake, teeth chatter, and bouts of grooming were measured as occurrence in each 15-second interval. Individual rearing events were counted. Number of fecal pellets at the end of the 25-minute interval was used to quantify diarrhea.

A further series has as its system K14-e/e and e/e mice. Briefly: Naloxone-precipitated symptoms of opiate withdrawal in forskolin plus rolipram treated mice. Particulars: individual forskolin plus rolipram treated mice, naloxone 2 mg/kg; for Rearing: 25 min; for Jumping: events in 25 min; for Diarrhea: fecal pellets at 25 min; for Paw Tremor / Teeth Chatter / Wet Dog Shake / oming: occurrence per 15 sec interval over 25 min. As to the method: Female mice were treated with 40 μL of 20%-Forskolin extract daily and 40 μL of rolipram (Sigma) 20 μM in DMSO or vehicle control. Basal blood samples were collected at the beginning of each experiment. After treatment started, blood samples were collected once a week. After 4 weeks of continuous exposure to forskolin and rolipram or vehicle control, mice were injected with saline or naloxone and symptoms of opiate withdrawal were measured for 25 min post injection. Naloxone (St. Luis, Mo.) was diluted in saline at […] and was administrated to mice ˜200 μL, depending on the mass of each mouse (2 mg/kg). Symptoms assigned were wet dog shake (WDS), paw tremor, jumping, bouts of grooming, teeth chatter (TC), rearing and diarrhea. The occurrence in each 15 sec interval of WDS, paw tremor, bouts of grooming and teeth chatter (TC) was used to quantify these parameters. The number of fecal pellets and the individual jumping events at the end of 25 min were quantified for these two factors.
Finally, the functional significance of systemic β-endorphin elevations upon cAMP activation was tested by carrying out behavioral studies on forskolin plus rolipram treated mice.

Take `C=CCN1CC[C@]23c4c5ccc(O)c4O[C@H]2C(=O)CC[C@@]3(O)[C@H]1C5` [naloxone, naloxone hydrochloride]: the “plasma β-endorphin” value in the series with β-endorphin is listed as “no significant effect of Naloxone treatment within either group”. Also, in the series on C57Bl/6 mice, the “signs of opioid withdrawal” value is reported as “elicited many of the classic murine signs of opioid withdrawal”. For the same molecule, in the series with K14-e/e and e/e mice (K14:e/e), the Rearing amounted to 0 and the Jumping was 0. Also, in the series with K14-e/e and e/e mice (K14:e/e, hydrochloride), the Diarrhea was 0 and 1; the “Paw Tremor” value is 0 and 2; the “Teeth Chatter” value is 80 and 107; the “Wet Dog Shake” value was 145 and 135. The oming with K14-e/e and e/e mice (K14:e/e, hydrochloride) was 17 and 2. In the series on K14-e/e and e/e mice (e/e, hydrochloride), the Rearing is 0 and 18; the Diarrhea was 1 and 2; the “Paw Tremor” value is 4 and 34; the “Teeth Chatter” value was 116 and 75. For the same molecule, in the series with K14-e/e and e/e mice (e/e, hydrochloride), the “Wet Dog Shake” value is 120 and 76; the oming was 13 and 19. Also, the Jumping in the series with K14-e/e and e/e mice (e/e) was found to be 0.

The record behind these values is patent US20190083455A1, “METHODS AND COMPOSITIONS FOR THE MODULATION OF BETA-ENDORPHIN LEVELS” (The General Hospital Corporation, priority 2014, published 2019).
